According to patent US20040191254A1, “Method of treatment of thyroid cancer” (priority 2001, published 2004):
pIC50: −log10 of the molar value. “Also recorded” adds a separate entry of the source.

Legend:
RET/PTC3 = target: T1, RET/PTC3 (Homo sapiens, UniProt P07949); test: RET/PTC autophosphorylation, in vitro immunokinase assay of RET-IP extracts from RET/PTC3-5 cells; assay type: biochemical; settings: RET-IP extracts from RET/PTC3-5 cells treated with doxycycline for 48 h
T1 construct: expressed in transfected cells; host or cells: PCCL3 thyroid cell line (clone RET/PTC3-5), doxycycline-inducible expression
T1 sequence (P07949 with tags, fused parts or gaps): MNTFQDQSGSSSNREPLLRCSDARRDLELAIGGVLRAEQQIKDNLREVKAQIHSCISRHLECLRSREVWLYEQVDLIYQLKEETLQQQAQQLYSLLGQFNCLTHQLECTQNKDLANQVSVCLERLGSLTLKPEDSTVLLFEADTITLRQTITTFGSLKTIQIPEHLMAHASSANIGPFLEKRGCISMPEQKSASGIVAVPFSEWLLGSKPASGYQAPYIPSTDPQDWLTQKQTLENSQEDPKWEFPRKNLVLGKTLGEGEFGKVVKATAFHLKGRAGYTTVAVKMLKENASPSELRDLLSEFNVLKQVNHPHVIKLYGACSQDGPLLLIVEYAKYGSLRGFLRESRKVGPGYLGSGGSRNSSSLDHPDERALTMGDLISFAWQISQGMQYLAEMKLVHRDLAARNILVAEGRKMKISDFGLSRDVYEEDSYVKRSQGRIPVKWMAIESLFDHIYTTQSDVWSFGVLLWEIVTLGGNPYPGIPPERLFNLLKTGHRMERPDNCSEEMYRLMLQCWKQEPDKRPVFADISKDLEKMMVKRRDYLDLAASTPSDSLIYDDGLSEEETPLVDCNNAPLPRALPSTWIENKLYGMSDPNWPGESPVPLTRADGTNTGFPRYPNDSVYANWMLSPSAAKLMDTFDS
Description: In order to explore the activity of a compound which decreases the activity of the EGF on RET kinase, for example, a well-differentiated clonal thyroid cell line, PCCL3, conditionally expressing either RET/PTC3 or RET/PTC1 in a tetracyclin (doxycyclin)-dependent manner as described below can be used. The activation of expression of RET/PTC1 or 3 results in dimerization, autophosphorylation, and association with a number of signaling intermediates including Shc and PLCγ. […]
Confluent T-75 flasks are washed with ice cold PBS containing 0.2 mM sodium ortho-vanadate, Cells are then lysed with cold RIPA buffer 1.8 ml (20 mM Tris, pH 7.4, 150 mM NaCl, 1% Nonidet P-40, 1% Tween 20, 20 mM sodium fluoride, 1 mM sodium ortho-vanadate, 1 mM EGTA, […], 0.2 mM PMSF, with Sigma Protease inhibitor mix) with constant agitation at 4 C for 20 min. […] Proteins are subjected to SDS-PAGE gel (7.5%), their phosphorylation measured by Phosphorimager densitometry (Molecular Dynamics, Sunnyvale, Calif.) after transfer to nitrocellulose membranes. Phosphorylation is then normalized to total RET protein in the IP determined by Western analysis using goat polyclonal anti-RET antibody (SantaCruz). […]

EGF-R = target: T2, EGF-R (Homo sapiens, UniProt P00533); test: EGF-R autophosphorylation, immunokinase assay of A431 cells; assay type: biochemical
T2 construct: The human squamous-cell carcinoma cell line A431 stably overexpressing the EGF-R; endogenous in cells; host or cells: A431 human squamous-cell carcinoma cells

insulin receptor = target: T3, insulin receptor (Homo sapiens, UniProt P06213); test: Insulin receptor autophosphorylation, immunokinase assay of CHO-wt-IR cells; assay type: biochemical
T3 construct: expressed in transfected cells; host or cells: CHO-wt IR cells

[1] = tested on: PLCγ phosphorylation by RET/PTC; test: Activation (phosphorylation) of PLCγ by RET/PTC in Ret-PTC3-5 cells; assay type: cell-based; settings: Ret-PTC3-5 cells, doxycycline, inhibitor for 24 h; read-out: IC50 of inhibition of PLCγ phosphorylation
Procedure: Ret-PTC3-5 cells are seeded at 1×10^5 cells/well in 6-well Corning plates. After 3 days, cells are treated with or without doxycycline in the presence of the selected concentration of inhibitor dissolved in solvent for 24 h. Cells are rinsed twice with cold PBS containing 0.1 mM sodium orthovanadate, and left for 20 minutes in ice-cold RIPA buffer. Cell lysates are collected by centrifugation at 4C, and pelletted at 10,000×g for 20 min. Protein assays are performed on aliquots of supernatants by the Coomassie Blue assay (Pierce, Rockford, Ill.). 650 μg of protein are incubated with anti-PLC γ antibody (SantaCruz) or normal IgG overnight. The immune complexes are precipitated with proteinAG agarose (Santa Cruz) previously washed with RIPA buffer as described. After three washes with RIPA buffer, precipitates are eluted into 30 μl sample buffer, heated 10 min at 95 C, and ran on SDS-PAGE gel for Western blot analysis. Blots are initially probed with anti-phosphotyrosine. Loading is normalized by probing with anti-PLC γ antibody (SantaCruz).
It was shown before that upon activation, RET associates with and phosphorylates PLCγ. To further explore the effects of PKI166 on RET kinase activity, the impact of pretreatment with the compound on PLCγ phosphorylation is examined. When grown in the absence of doxycycline, there is no detectable PLCγ phosphorylation. […]

NIH3T3-RETC634Y cells = test: Growth of NIH3T3 cells expressing constitutively active RET Cys634Tyr; assay type: cell-based; settings: 20 nM or 30 nM for 9 days, 5% or 1% serum (FIG. 1)
Procedure: (§1) The indicated cell lines are allowed to plate overnight in 6-well plates (NIH3T3 cells at 5×10^4; 3T3-RETC634Y at 2×10^4). They are then grown in the presence of no PKI166, 20 nM PKI166 or 30 nM PKI166 for 9 days, with media changes every 3 days. Bars represent the X±SD of cell counts in 3 independent experiments. The first three columns show the results in NIH3T3-RetCys634Tyr in 5% serum, the next three columns show the results in NIH3T3-RetCys634Tyr in 1% serum and the last two columns the results in NIH3T3 in 5% serum (only vehicle and 30 nM PKI 166).
(§2) […] is the most common germine mutation of RET in multiple endocrine neoplasia type 2A stably expressing a constitutively active form of RET. NIH3T3-RETC634Y cells are transformed, as evidenced by growth in low serum conditions, colony formation in soft agar, and tumor formation in nude mice. […] PKI166 has no effect on growth of wild-type NIH3T3 cells grown in 5% serum (FIG. 1).

wild-type NIH3T3 cells = test: Growth of wild-type NIH3T3 cells; assay type: cell-based; settings: 5% serum; 30 nM, 9 days (FIG. 1)
Procedure: as §1, §2

T2 sequence (P00533 25-1210): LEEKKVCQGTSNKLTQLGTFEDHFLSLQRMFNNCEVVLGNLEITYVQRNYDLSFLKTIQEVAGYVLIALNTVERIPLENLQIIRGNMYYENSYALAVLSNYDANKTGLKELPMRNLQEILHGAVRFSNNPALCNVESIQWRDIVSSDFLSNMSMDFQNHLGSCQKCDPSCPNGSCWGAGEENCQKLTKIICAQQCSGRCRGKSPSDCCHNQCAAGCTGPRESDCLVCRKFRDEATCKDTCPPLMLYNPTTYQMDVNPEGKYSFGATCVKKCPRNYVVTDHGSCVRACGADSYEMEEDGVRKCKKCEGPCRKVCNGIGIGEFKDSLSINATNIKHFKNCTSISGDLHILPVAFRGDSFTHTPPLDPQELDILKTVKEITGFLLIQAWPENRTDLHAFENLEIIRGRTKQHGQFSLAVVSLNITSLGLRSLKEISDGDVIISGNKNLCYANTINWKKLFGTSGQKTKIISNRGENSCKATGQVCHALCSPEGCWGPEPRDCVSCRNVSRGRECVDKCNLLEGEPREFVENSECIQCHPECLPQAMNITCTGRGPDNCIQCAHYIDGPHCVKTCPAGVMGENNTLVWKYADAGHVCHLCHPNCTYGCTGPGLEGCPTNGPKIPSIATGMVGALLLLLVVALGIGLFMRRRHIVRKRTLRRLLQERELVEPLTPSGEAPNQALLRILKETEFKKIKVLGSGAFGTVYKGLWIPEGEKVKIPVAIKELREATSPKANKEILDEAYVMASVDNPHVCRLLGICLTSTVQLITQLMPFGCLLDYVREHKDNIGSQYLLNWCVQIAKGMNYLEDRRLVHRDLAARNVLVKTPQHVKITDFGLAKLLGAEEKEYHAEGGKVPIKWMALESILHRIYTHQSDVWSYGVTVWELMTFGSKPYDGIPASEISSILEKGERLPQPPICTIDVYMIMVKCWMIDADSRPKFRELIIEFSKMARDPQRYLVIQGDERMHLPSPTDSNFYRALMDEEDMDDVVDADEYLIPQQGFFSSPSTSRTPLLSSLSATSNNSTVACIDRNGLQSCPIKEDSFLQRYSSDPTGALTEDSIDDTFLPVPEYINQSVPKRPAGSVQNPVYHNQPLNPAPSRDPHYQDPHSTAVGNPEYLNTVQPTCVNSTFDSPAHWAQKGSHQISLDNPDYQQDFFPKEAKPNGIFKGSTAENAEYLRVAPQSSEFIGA
T3 sequence (P06213 28-1382, species assumed): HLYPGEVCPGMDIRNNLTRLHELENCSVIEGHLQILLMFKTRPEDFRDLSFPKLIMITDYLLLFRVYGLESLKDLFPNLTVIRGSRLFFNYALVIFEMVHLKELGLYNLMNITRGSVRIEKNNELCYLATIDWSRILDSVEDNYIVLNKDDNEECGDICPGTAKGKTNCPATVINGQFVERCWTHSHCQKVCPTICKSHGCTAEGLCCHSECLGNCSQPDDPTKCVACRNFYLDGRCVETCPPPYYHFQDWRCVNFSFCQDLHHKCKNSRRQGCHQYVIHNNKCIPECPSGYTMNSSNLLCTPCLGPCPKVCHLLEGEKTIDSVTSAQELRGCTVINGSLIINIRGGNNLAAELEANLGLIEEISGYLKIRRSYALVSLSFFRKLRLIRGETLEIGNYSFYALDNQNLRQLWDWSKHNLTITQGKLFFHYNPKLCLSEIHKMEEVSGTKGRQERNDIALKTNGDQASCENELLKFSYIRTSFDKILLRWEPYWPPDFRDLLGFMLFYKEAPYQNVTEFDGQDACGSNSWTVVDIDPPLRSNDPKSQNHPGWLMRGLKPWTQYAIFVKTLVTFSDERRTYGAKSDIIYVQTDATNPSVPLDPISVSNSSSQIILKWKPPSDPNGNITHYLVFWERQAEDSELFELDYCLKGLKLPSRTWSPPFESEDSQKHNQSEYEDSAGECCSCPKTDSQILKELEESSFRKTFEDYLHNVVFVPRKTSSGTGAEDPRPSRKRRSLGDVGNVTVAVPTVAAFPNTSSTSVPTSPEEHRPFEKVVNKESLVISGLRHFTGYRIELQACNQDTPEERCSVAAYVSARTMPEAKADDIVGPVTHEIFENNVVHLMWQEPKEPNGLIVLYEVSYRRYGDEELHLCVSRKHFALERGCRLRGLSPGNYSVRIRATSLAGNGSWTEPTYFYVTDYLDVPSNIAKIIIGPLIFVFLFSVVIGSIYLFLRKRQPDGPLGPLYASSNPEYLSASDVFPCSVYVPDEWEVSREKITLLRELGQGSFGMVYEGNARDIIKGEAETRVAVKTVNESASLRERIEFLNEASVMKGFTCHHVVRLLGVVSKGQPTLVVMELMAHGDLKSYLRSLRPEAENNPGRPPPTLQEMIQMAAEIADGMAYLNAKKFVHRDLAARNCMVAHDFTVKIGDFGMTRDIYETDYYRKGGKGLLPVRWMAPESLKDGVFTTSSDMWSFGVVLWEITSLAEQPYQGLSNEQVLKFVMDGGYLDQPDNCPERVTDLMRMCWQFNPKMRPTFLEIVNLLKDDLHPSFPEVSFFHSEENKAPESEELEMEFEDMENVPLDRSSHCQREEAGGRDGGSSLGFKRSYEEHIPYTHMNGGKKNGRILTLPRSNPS

For C[C@@H](Nc1ncnc2[nH]c(-c3ccc(O)cc3)cc12)c1ccccc1 [PKI166, (R)-6-(4-hydroxy-phenyl)-4-[(1-phenyl-ethyl)-amino]-7H-pyrrolo[2,3-d]-pyrimidine], the pIC50 (RET/PTC3) was about 7.75, the pIC50 (EGF-R) was 8.10 and the “effect on insulin receptor autophosphorylation” value (insulin receptor) was “no effects”. For the same molecule, the pIC50 [1] was about 8.40, the “inhibition of cell growth of RET-transformed fibroblasts” value (NIH3T3-RETC634Y cells) was “inhibits the growth; also recorded: powerful, concentration dependent inhibition of cell growth” and the “effect on growth of wild-type NIH3T3 cells” value (wild-type NIH3T3 cells) was “no effect”.
